From article PMC5218480 (PLoS ONE, 2017)

Tested on: MV-4-11 cells
Test: Gene expression microarray analysis (Affymetrix PrimeView) and GSEA
Assay type: cell-based, human
Design: RFU PODN (11730768_x_at) / Fold change /veh PODN (11730768_x_at) / RFU LINC00158 (11744669_a_at) / Fold change /veh LINC00158 (11744669_a_at) / RFU DUSP10 (11751237_a_at) / Fold change /veh DUSP10 (11751237_a_at) / RFU ID3 (11757404_x_at) / Fold change /veh ID3 (11757404_x_at) / RFU PLEKHG5 (11737974_s_at) / Fold change /veh PLEKHG5 (11737974_s_at) / RFU LRRC4B (11730491_at) / Fold change /veh LRRC4B (11730491_at) / RFU GIMAP4 (11747438_a_at) / Fold change /veh GIMAP4 (11747438_a_at) / RFU KRT8 (11758183_x_at) / Fold change /veh KRT8 (11758183_x_at) / RFU CNN1 (11734310_a_at) / Fold change /veh CNN1 (11734310_a_at) / RFU VPS37D (11726825_at) / Fold change /veh VPS37D (11726825_at) / RFU C10orf10 (11716522_x_at) / Fold change /veh C10orf10 (11716522_x_at) / RFU KIR2DL2 /// KIR2DL4 /// KIR2DL5A /// KIR2DL5B /// KIR2DS1 /// KIR2DS2 /// KIR2DS3 /// KIR2DS4 /// KIR3DL3 /// KIR3DL3 /// KIR3DS1 (11738374_at) / Fold change /veh KIR2DL2 /// KIR2DL4 /// KIR2DL5A /// KIR2DL5B /// KIR2DS1 /// KIR2DS2 /// KIR2DS3 /// KIR2DS4 /// KIR3DL3 /// KIR3DL3 /// KIR3DS1 (11738374_at) / RFU C1QL1 (11718748_at) / Fold change /veh C1QL1 (11718748_at) / RFU TMPRSS4 (11747572_a_at) / Fold change /veh TMPRSS4 (11747572_a_at) / RFU HAMP (11756126_x_at) / Fold change /veh HAMP (11756126_x_at) / RFU RNFT2 (11725882_a_at) / Fold change /veh RNFT2 (11725882_a_at) / RFU NR4A2 (11747474_a_at) / Fold change /veh NR4A2 (11747474_a_at) / RFU ABCC12 (11746883_a_at) / Fold change /veh ABCC12 (11746883_a_at) / RFU TMEM136 (11760407_x_at) / Fold change /veh TMEM136 (11760407_x_at) / RFU CLDN22 /// WWC2 (11732394_at) / Fold change /veh CLDN22 /// WWC2 (11732394_at) / RFU HLA-DPB1 (11760878_x_at) / Fold change /veh HLA-DPB1 (11760878_x_at) / RFU SPINT1 (11716480_a_at) / Fold change /veh SPINT1 (11716480_a_at) / RFU GAP43 (11754022_s_at) / Fold change /veh GAP43 (11754022_s_at) / RFU A4GNT (11735810_at) / Fold change /veh A4GNT (11735810_at) / RFU PRB3 (11715151_x_at) / Fold change /veh PRB3 (11715151_x_at) / RFU TUBB4B (11761932_at) / Fold change /veh TUBB4B (11761932_at) / RFU CAPN14 (11732068_a_at) / Fold change /veh CAPN14 (11732068_a_at) / RFU TMCC2 (11721928_a_at) / Fold change /veh TMCC2 (11721928_a_at) / RFU IRGQ (11745062_a_at) / Fold change /veh IRGQ (11745062_a_at) / RFU FAM174B (11720279_a_at) / Fold change /veh FAM174B (11720279_a_at) / RFU TMPRSS4 (11748680_a_at) / Fold change /veh TMPRSS4 (11748680_a_at) / RFU FAM212B (11763350_a_at) / Fold change /veh FAM212B (11763350_a_at) / RFU PLEKHG5 (11743358_a_at) / Fold change /veh PLEKHG5 (11743358_a_at) / RFU ZSCAN30 (11745921_a_at) / Fold change /veh ZSCAN30 (11745921_a_at) / RFU CMKLR1 (11741424_a_at) / Fold change /veh CMKLR1 (11741424_a_at) / RFU LOC101060620 /// MAPK8IP1 (11723275_at) / Fold change /veh LOC101060620 /// MAPK8IP1 (11723275_at) / RFU SPTSSB (11747773_x_at) / Fold change /veh SPTSSB (11747773_x_at) / RFU PRSS12 (11739890_at) / Fold change /veh PRSS12 (11739890_at) / RFU BIN1 (11741810_x_at) / Fold change /veh BIN1 (11741810_x_at) / RFU WNT11 (11732464_a_at) / Fold change /veh WNT11 (11732464_a_at) / RFU C10orf10 (11716521_a_at) / Fold change /veh C10orf10 (11716521_a_at) / RFU C5orf56 (11738089_at) / Fold change /veh C5orf56 (11738089_at) / RFU CYB561 (11721691_x_at) / Fold change /veh CYB561 (11721691_x_at) / RFU ANKRD19P (11752326_a_at) / Fold change /veh ANKRD19P (11752326_a_at) / RFU OR2T12 /// OR2T33 /// OR2T8 (11738714_s_at) / Fold change /veh OR2T12 /// OR2T33 /// OR2T8 (11738714_s_at) / RFU VCAN (11748164_a_at) / Fold change /veh VCAN (11748164_a_at) / RFU JSRP1 (11732532_at) / Fold change /veh JSRP1 (11732532_at) / RFU KRTAP10-11 (11738290_x_at) / Fold change /veh KRTAP10-11 (11738290_x_at) / RFU MYO3A (11730013_a_at) / Fold change /veh MYO3A (11730013_a_at) / RFU EBF3 (11725865_a_at) / Fold change /veh EBF3 (11725865_a_at) / RFU CAMK2N1 (11719241_x_at) / Fold change /veh CAMK2N1 (11719241_x_at) / RFU C5orf56 (11738088_a_at) / Fold change /veh C5orf56 (11738088_a_at) / RFU OLFML3 (11715873_a_at) / Fold change /veh OLFML3 (11715873_a_at) / RFU LOC100653217 /// NTM (11731650_a_at) / Fold change /veh LOC100653217 /// NTM (11731650_a_at) / RFU MAPK11 (11762145_a_at) / Fold change /veh MAPK11 (11762145_a_at) / RFU FIZ1 (11724087_x_at) / Fold change /veh FIZ1 (11724087_x_at) / RFU OASL (11726364_x_at) / Fold change /veh OASL (11726364_x_at) / RFU SOX15 (11748057_x_at) / Fold change /veh SOX15 (11748057_x_at) / RFU CD79A (11719716_a_at) / Fold change /veh CD79A (11719716_a_at) / RFU HIST1H1D (11736915_at) / Fold change /veh HIST1H1D (11736915_at) / RFU CASKIN2 (11723855_a_at) / Fold change /veh CASKIN2 (11723855_a_at) / RFU LOC730098 (11760151_x_at) / Fold change /veh LOC730098 (11760151_x_at) / RFU OR4N2 (11742367_at) / Fold change /veh OR4N2 (11742367_at) / RFU PRRT2 (11749266_a_at) / Fold change /veh PRRT2 (11749266_a_at) / RFU SNX32 (11753110_a_at) / Fold change /veh SNX32 (11753110_a_at) / RFU CDHR5 (11726645_a_at) / Fold change /veh CDHR5 (11726645_a_at) / RFU RCAN1 (11760418_a_at) / Fold change /veh RCAN1 (11760418_a_at) / RFU FAM167A (11723789_a_at) / Fold change /veh FAM167A (11723789_a_at) / RFU FAM26E (11764081_at) / Fold change /veh FAM26E (11764081_at) / RFU ISYNA1 (11749810_s_at) / Fold change /veh ISYNA1 (11749810_s_at) / RFU ACY1 (11761880_at) / Fold change /veh ACY1 (11761880_at) / RFU 11764098_at / Fold change /veh 11764098_at / RFU SAMD14 (11745864_x_at) / Fold change /veh SAMD14 (11745864_x_at) / RFU NPB (11741838_a_at) / Fold change /veh NPB (11741838_a_at) / RFU TMPRSS6 (11731388_a_at) / Fold change /veh TMPRSS6 (11731388_a_at) / RFU KRTAP10-2 (11738614_at) / Fold change /veh KRTAP10-2 (11738614_at) / RFU ARHGAP8 /// PRR5-ARHGAP8 (11727945_x_at) / Fold change /veh ARHGAP8 /// PRR5-ARHGAP8 (11727945_x_at) / RFU KRTAP5-7 /// NADSYN1 (11734609_at) / Fold change /veh KRTAP5-7 /// NADSYN1 (11734609_at) / RFU RASL12 (11751679_a_at) / Fold change /veh RASL12 (11751679_a_at) / RFU CDKN2B (11736163_a_at) / Fold change /veh CDKN2B (11736163_a_at) / RFU PRF1 (11729649_at) / Fold change /veh PRF1 (11729649_at) / RFU, ZNF638 /// ZNF638-IT1 / Fold change vs veh, ZNF638 /// ZNF638-IT1 / RFU, PANK3 / Fold change vs veh, PANK3 / RFU, SH3YL1 / Fold change vs veh, SH3YL1 / RFU, ZEB2 / Fold change vs veh, ZEB2 / RFU, NRIP1 / Fold change vs veh, NRIP1 / RFU, PTTG1IP / Fold change vs veh, PTTG1IP / RFU, CAPN2 / Fold change vs veh, CAPN2 / RFU, MED14 / Fold change vs veh, MED14 / RFU, SNORA58 / Fold change vs veh, SNORA58 / RFU, C1orf63 / Fold change vs veh, C1orf63 / RFU, LRRFIP1 / Fold change vs veh, LRRFIP1 / RFU, NDUFAF7 / Fold change vs veh, NDUFAF7 / RFU, SLC12A2 / Fold change vs veh, SLC12A2 / RFU, IBTK / Fold change vs veh, IBTK / RFU, ESF1 / Fold change vs veh, ESF1 / Fold change vs veh, TMEM50B / RFU, TAOK1 / Fold change vs veh, TAOK1 / RFU, ACBD3 / Fold change vs veh, ACBD3 / RFU, TMA16 / Fold change vs veh, TMA16 / RFU, RWDD3 / Fold change vs veh, RWDD3 / RFU, BCAT1 / Fold change vs veh, BCAT1 / RFU, EDEM3 / Fold change vs veh, EDEM3 / RFU, TMEM33 / Fold change vs veh, TMEM33 / RFU, WDR75 / Fold change vs veh, WDR75 / RFU, AHCTF1 / Fold change vs veh, AHCTF1 / RFU, TFRC / Fold change vs veh, TFRC / RFU, ZDHHC17 / Fold change vs veh, ZDHHC17 / RFU, NOM1 / Fold change vs veh, NOM1 / RFU, ARL8B / Fold change vs veh, ARL8B / RFU, ZBTB11 / Fold change vs veh, ZBTB11 / RFU, TAMM41 / Fold change vs veh, TAMM41 / RFU, KIAA1704 /// LOC100996395 / Fold change vs veh, KIAA1704 /// LOC100996395 / RFU, ING1 / Fold change vs veh, ING1 / RFU, TRMT61B / Fold change vs veh, TRMT61B / RFU, FUBP3 / Fold change vs veh, FUBP3 / RFU, TP53 / Fold change vs veh, TP53 / RFU, TNKS2 / Fold change vs veh, TNKS2 / RFU, ZFP14 / Fold change vs veh, ZFP14 / RFU, ACTR2 / Fold change vs veh, ACTR2 / RFU, PPP3R1 / Fold change vs veh, PPP3R1 / RFU, PIK3R1 / Fold change vs veh, PIK3R1 / RFU, HNRNPA1 / Fold change vs veh, HNRNPA1 / RFU, RNF170 / Fold change vs veh, RNF170 / RFU, ZNF28 / Fold change vs veh, ZNF28 / RFU, RNGTT / Fold change vs veh, RNGTT / RFU, OGT / Fold change vs veh, OGT / RFU, BRD1 / Fold change vs veh, BRD1 / RFU, MARS / Fold change vs veh, MARS / RFU, ZNF655 / Fold change vs veh, ZNF655 / RFU, FAHD1 / Fold change vs veh, FAHD1 / RFU, BDP1 / Fold change vs veh, BDP1 / RFU, LRRCC1 / Fold change vs veh, LRRCC1 / RFU, ARID1A / Fold change vs veh, ARID1A / RFU, ZNF146 / Fold change vs veh, ZNF146 / RFU, ZNF330 / Fold change vs veh, ZNF330 / RFU, GPN3 / Fold change vs veh, GPN3 / RFU, C9orf123 / Fold change vs veh, C9orf123 / RFU, N4BP2L2 / Fold change vs veh, N4BP2L2 / RFU, ARFIP1 / Fold change vs veh, ARFIP1 / RFU, FAM179B / Fold change vs veh, FAM179B / RFU, BCL10 / Fold change vs veh, BCL10 / RFU, UHRF1BP1L / Fold change vs veh, UHRF1BP1L / RFU, BET1 / Fold change vs veh, BET1 / RFU, CNOT2 / Fold change vs veh, CNOT2 / RFU, ZNF268 / Fold change vs veh, ZNF268 / Fold change vs veh, ZNF507 / RFU, DGCR2 / Fold change vs veh, DGCR2 / RFU, WDSUB1 / Fold change vs veh, WDSUB1 / Fold change vs veh, HSP90B1 /// MIR3652 / RFU, ADSS / Fold change vs veh, ADSS / RFU, GK / Fold change vs veh, GK / RFU, ZNF148 / Fold change vs veh, ZNF148 / RFU, TAF9 / Fold change vs veh, TAF9 / RFU, SLC1A5 / Fold change vs veh, SLC1A5 / RFU, SLMO2 / Fold change vs veh, SLMO2 / RFU, ABCC4 / Fold change vs veh, ABCC4 / RFU, LOC101060439 /// RAP1B / Fold change vs veh, LOC101060439 /// RAP1B / RFU, RFX7 / Fold change vs veh, RFX7 / RFU, GTPBP10 / Fold change vs veh, GTPBP10 / RFU, CNEP1R1 / Fold change vs veh, CNEP1R1 / RFU, BIVM-ERCC5 /// ERCC5 / Fold change vs veh, BIVM-ERCC5 /// ERCC5 / RFU, ILF3 / Fold change vs veh, ILF3 / RFU 11762660_at / Fold change /veh 11762660_at / RFU VCAN (11757783_s_at) / Fold change /veh VCAN (11757783_s_at) / RFU DDX43 (11728927_at) / Fold change /veh DDX43 (11728927_at) / RFU KRT8 (11758188_x_at) / Fold change /veh KRT8 (11758188_x_at) / RFU NKD1 (11759106_at) / Fold change /veh NKD1 (11759106_at) / RFU SRD5A1 (11742802_a_at) / Fold change /veh SRD5A1 (11742802_a_at) / RFU TPSAB1 /// TPSB2 (11721975_s_at) / Fold change /veh TPSAB1 /// TPSB2 (11721975_s_at) / RFU GSTM3 (11746129_a_at) / Fold change /veh GSTM3 (11746129_a_at) / RFU IL23R (11737362_x_at) / Fold change /veh IL23R (11737362_x_at) / RFU TMEM51 (11727254_a_at) / Fold change /veh TMEM51 (11727254_a_at) / RFU PIWIL2 (11732686_x_at) / Fold change /veh PIWIL2 (11732686_x_at) / RFU ORM1 (11744905_x_at) / Fold change /veh ORM1 (11744905_x_at) / RFU CCDC152 (11743942_at) / Fold change /veh CCDC152 (11743942_at) / RFU ECM1 (11717891_a_at) / Fold change /veh ECM1 (11717891_a_at) / RFU IL23R (11748794_a_at) / Fold change /veh IL23R (11748794_a_at) / RFU TNFAIP8L3 (11732012_x_at) / Fold change /veh TNFAIP8L3 (11732012_x_at) / RFU MBOAT4 (11741988_at) / Fold change /veh MBOAT4 (11741988_at) / RFU 11764193_at / Fold change /veh 11764193_at / RFU TMEM53 (11763286_at) / Fold change /veh TMEM53 (11763286_at) / RFU MAGEB2 (11727129_at) / Fold change /veh MAGEB2 (11727129_at) / RFU TMEM200A (11744735_a_at) / Fold change /veh TMEM200A (11744735_a_at) / RFU CCDC152 (11751479_a_at) / Fold change /veh CCDC152 (11751479_a_at) / RFU FAM211A (11726209_a_at) / Fold change /veh FAM211A (11726209_a_at) / RFU RGS16 (11746705_a_at) / Fold change /veh RGS16 (11746705_a_at) / RFU VCAN (11755009_s_at) / Fold change /veh VCAN (11755009_s_at) / RFU RHOB (11743442_s_at) / Fold change /veh RHOB (11743442_s_at) / RFU RGS16 (11720943_a_at) / Fold change /veh RGS16 (11720943_a_at) / RFU RGS16 (11720944_at) / Fold change /veh RGS16 (11720944_at) / RFU, VPS4B / Fold change vs veh, VPS4B / RFU, CREB1 / Fold change vs veh, CREB1 / RFU, DNAJC13 / Fold change vs veh, DNAJC13 / RFU, GNAQ / Fold change vs veh, GNAQ / RFU, CDK5R1 / Fold change vs veh, CDK5R1 / RFU, ZRANB3 / Fold change vs veh, ZRANB3 / RFU, CUL4A / Fold change vs veh, CUL4A / RFU, CCNY / Fold change vs veh, CCNY / RFU, UFL1 / Fold change vs veh, UFL1 / RFU, COG3 / Fold change vs veh, COG3 / RFU, DIAPH2 / Fold change vs veh, DIAPH2 / RFU, SKA2 / Fold change vs veh, SKA2 / RFU, AFF3 / Fold change vs veh, AFF3 / RFU, LMF1 / Fold change vs veh, LMF1 / RFU, IPO11 / Fold change vs veh, IPO11 / RFU, DFFB / Fold change vs veh, DFFB / RFU, FOXP1 / Fold change vs veh, FOXP1 / RFU, CARD8 / Fold change vs veh, CARD8 / RFU, STRN3 / Fold change vs veh, STRN3 / RFU, ADK / Fold change vs veh, ADK / RFU, RASSF2 / Fold change vs veh, RASSF2 / RFU, WIPF1 / Fold change vs veh, WIPF1 / RFU, LARP1B / Fold change vs veh, LARP1B / RFU, RASA1 / Fold change vs veh, RASA1 / RFU, RB1 / Fold change vs veh, RB1 / RFU, PPFIA1 / Fold change vs veh, PPFIA1 / RFU, MAT2A / Fold change vs veh, MAT2A / RFU, CCT5 / Fold change vs veh, CCT5 / RFU, WDR92 / Fold change vs veh, WDR92 / RFU, CUX1 / Fold change vs veh, CUX1 / RFU, TTC7A / Fold change vs veh, TTC7A / RFU, TMEM135 / Fold change vs veh, TMEM135 / RFU, DEPTOR / Fold change vs veh, DEPTOR / RFU, CPM / Fold change vs veh, CPM / RFU, DNAJB6 / Fold change vs veh, DNAJB6 / RFU, CACNA2D3 / Fold change vs veh, CACNA2D3 / RFU, DTX4 / Fold change vs veh, DTX4 / RFU, TFCP2 / Fold change vs veh, TFCP2 / RFU, GMCL1 /// GMCL1P1 / Fold change vs veh, GMCL1 /// GMCL1P1 / RFU, AEBP2 / Fold change vs veh, AEBP2 / RFU, SNHG1 /// SNORD22 /// SNORD25 /// SNORD26 /// SNORD27 /// SNORD28 /// SNORD29 /// SNORD31 / Fold change vs veh, SNHG1 /// SNORD22 /// SNORD25 /// SNORD26 /// SNORD27 /// SNORD28 /// SNORD29 /// SNORD31 / Fold change (Aza/veh), C12orf56 (ProbeSet 11735607_a_at) / Fold change (ACY-1035/veh), C12orf56 (ProbeSet 11735607_a_at) / Fold change (Aza/veh), FGFR1OP (ProbeSet 11751329_s_at) / Fold change (ACY-1035/veh), FGFR1OP (ProbeSet 11751329_s_at) / Fold change (Aza/veh), VPS36 (ProbeSet 11739960_a_at) / Fold change (ACY-1035/veh), VPS36 (ProbeSet 11739960_a_at) / RFU SYPL1 (11715823_x_at) / Fold change /veh SYPL1 (11715823_x_at) / RFU IGFBP7 (11715501_s_at) / Fold change /veh IGFBP7 (11715501_s_at) / RFU REEP3 (11722064_at) / Fold change /veh REEP3 (11722064_at) / RFU IGLL1 (11728026_x_at) / Fold change /veh IGLL1 (11728026_x_at): dose or concentration left out as unconfirmed
Conditions: ProbeSet 11759095_at; LIST D

## Nc1ncn([C@@H]2O[C@H](CO)[C@@H](O)[C@H]2O)c(=O)n1 [azacitidine]
  Fold change vs veh, GNAQ: 0.81
